Measurements reported in patent US20160143995A1, “Method of Treating Intracellular Infection” (priority 2013, published 2016).
Where two headings read alike, the source gives them in different places.

How the values were obtained:
HIV-1JR-CSF [1] = experiment: Anti HIV efficacy evaluation in fresh human PBMCs (reverse transcriptase activity); details: for IC50: Human immunodeficiency virus 1, PBMC, in Homo sapiens, 144 h, read-out: IC50 (50% inhibition of virus replication)
[2] = tested on: primary human hepatocytes infected with HBV; experiment: Viability (CellTiter-Glo) of primary human hepatocytes infected in vitro with HBV; assay type: cell-based; details: forty eight hours after treatment, in the absence of TNF-α
Description: Primary human hepatocytes were infected in vitro with HBV using an adenoviral delivery system as previously described (Chin R, Earnest-Silveira L, Koeberlein B, Franz S, Zentgraf H, Bowden S, Bock C-T, Torresi J. Modulation of MAPK pathways and cell cycle byreplicating hepatitis B virus: factors contributing tohepatocarcinogenesis. J Hepatology 2007;47:325-37). The delivery system included a green fluorescent protein marker so that the proportion of infected cells could be quantified. Using this system approximately 100% of hepatocytes were infected with HBV. Cells were rested for 2 days after infection and then they were treated with the indicated agents. Forty eight hours after treatment cell viability was assessed using CellTiter-Glo® (Promega, Madison Wis. USA) according to the manufacturer's protocol. This experiment was performed in triplicate and repeated 2 times using 2 independent donors. The highest CellTiter-Glo result from one of the triplicate untreated samples was used to set the 100% viability mark.

[3] = MTS staining for PBMC viability to measure cytotoxicity; assay type: cell-based, human; details: human, PHA-stimulated pooled PBMCs, HIV-infected, infected PBMCs, six days, MTS, unit printed only with high-test concentration, read-out: TC50 (50% cytotoxicity)
Protocol: (§1) Pooling (mixing) of mononuclear cells from more than one donor was used to minimize the variability observed between individual donors, which results from quantitative and qualitative differences in HIV infection and overall response to the PHA and IL-2 of primary lymphocyte populations. Each plate contains virus/cell control wells (cells plus virus) and experimental wells (drug plus cells plus virus). In this in vitro assay, PBMC viability remains high throughout the duration of the incubation period. Therefore, infected wells are used in the assessment of both antiviral activity and cytotoxicity. […] The PBMC cultures were maintained for six days following infection at 37° C., 5% CO2. After this period, cell-free supernatant samples were collected for analysis of reverse transcriptase activity. Following removal of supernatant samples, compound cytotoxicity was measured by addition of MTS to the plates for determination of cell viability. Wells were also examined microscopically and any abnormalities were noted. At assay termination, the assay plates were stained with the soluble tetrazolium-based dye MTS (CellTiter®96 Reagent, Promega) to determine cell viability and quantify compound toxicity. MTS is metabolized by the mitochondrial enzymes of metabolically active cells to yield a soluble formazan product, allowing the rapid quantitative analysis of cell viability and compound cytotoxicity. […] At termination of the assay, 10-25 μL of MTS reagent was added per well (10% final concentration based on volume) and the microtiter plates were then incubated for 4-6 hrs at 37° C., 5% CO2 to assess cell viability. Adhesive plate sealers were used in place of the lids, the sealed plate was inverted several times to mix the soluble formazan product and the plate was read spectrophotometrically at 490/650 nm with a Molecular Devices Vmax or SpectraMax Plus plate reader. […]

human PBMCs = experiment: as above; assay type: cell-based; details: fixed concentration (10 ng/mL) of TNF-α versus birinapant alone; within expected biological variability
Protocol: as §1

HBV = experiment: Treatment of HBV infected mice (serum HBV DNA); assay type: in vivo, hepatitis B virus
[4] = tested on: HIV-infected (GFP+) cultured CD4+ lymphocytes; experiment: FACS of living (Active-Caspase 3 negative) HIV NL4.3 infected CD4+ lymphocytes; assay type: cell-based, human; details: single dose of 10 uM, within 24 hours
[5] = tested on: Mycobacterium tuberculosis (strain H37Rv); experiment: Mycobacterium tuberculosis infected mice, lung bacterial burden; assay type: in vivo
[6] = Toxicity of treatment in HBV-infected mice; assay type: in vivo
Protocol: C57BL/6 mice were infected with HBV and 6 days after infection were treated with weekly doses of birinapnat (30 mg/kg administered intraperitoneally) or vehicle control (DMSO) for a total of 3 weeks (3 doses).

HIV-1JR-CSF [7] = tested on: HIV-1JR-CSF

TNF-α
reduction in HIV replication (HIV-1JR-CSF [1]; TNF-α alone, 10 ng/mL): 35%

TRAIL: TNF-related apoptosis inducing ligand
death of primary human hepatocytes infected with HBV [2]: virtually no efficacy

CC[C@H](NC(=O)[C@H](C)NC)C(=O)N1C[C@@H](O)C[C@H]1Cc1c(-c2[nH]c3cc(F)ccc3c2C[C@@H]2C[C@H](O)CN2C(=O)[C@H](CC)NC(=O)[C@H](C)NC)[nH]c2cc(F)ccc12 [Birinapant, birinapant]
CC50 at 6 days ([3]; high-test concentration 10 μM): 6.47 µM
increase in cytotoxicity in the presence of TNF-α (human PBMCs): 1.6 fold
reduction of HBV viral load compared to vehicle control (HBV; C57BL/6 mice, 30 mg/kg intraperitoneally weekly, after three doses): 2 logs
HBV DNA in serum (HBV; C57BL/6 mice, 39 days after the first dose, all treated mice): no detectable HBV DNA
efficacy against HBV when TNF-α is antagonized (HBV; HBV infected mice injected intraperitoneally with TNF-α antagonizing antibodies): abrogates the efficacy
HIV infected cells that die [4]: 55%
reduction in bacterial burden versus DMSO control ([5]; mice, intraperitoneal, 30 μg/g weekly x3, started 4 weeks after infection, p=0.012): 0.33 Log10 CFU/lung
macroscopic appearance of the lungs ([5]; upon dissection after three weekly doses): pink, uniform and healthier in appearance
death of primary human hepatocytes infected with HBV [2]: not effective
toxicity related to treatment [6]: No toxicity
IC50 (HIV-1JR-CSF [1]): 250 nM
increase in antiviral potency in the presence of TNF-α (HIV-1JR-CSF [1]; fixed concentration (10 ng/mL) of TNF-α versus birinapant alone): 6 fold

Cc1cn([C@H]2C[C@H](N=[N+]=[N-])[C@@H](CO)O2)c(=O)[nH]c1=O [AZT, Zidovudine]
CC50 at 6 days ([3]; high-test concentration 1,000 nM): > 1 µM
Antiviral Index (TC50/IC50) (HIV-1JR-CSF [7]): >584
IC50 (HIV-1JR-CSF [1]): 1.71 nM
